# Tests used:
# [1] = system: person two with long-standing TD; test: Case Report 1: clinical observation of TD with blepharospasm; assay type: in vivo, human; details: Case 1; for effect on involuntary movements of TD: clinical observation, acamprosate 333 mg four times a day
# Description: Palliative treatment with alprazolam (an anxiolytic and GABA agonist via modulation; dosage 0.25 mg four times a day) and trihexyphenidyl (an anticholinergic antiparkinson drug that inhibits dopamine re-uptake at synapses; dosage 2 mg twice a day) was prescribed by another physician.
# Initially, their other medications were maintained unchanged.
# Nimodipine was discontinued, and the patient was begun on memantine at a dosage of 10 mg twice a day.
# For the following 10 days they added 250 mg three times a day of chelated magnesium.
# [2] = system: patients with Meige syndrome; details: cited from earlier work
# [3] = system: person two with Parkinson's disease and peak-dose dyskinesia; test: Case Report 3: peak-dose dyskinesia of treated Parkinson's disease; assay type: in vivo, human; details: Case 3; for effect on peak-dose dyskinesia: added to antiparkinson regime, memantine 10 mg three times a day, acamprosate 666 mg three times, then 333 mg four times a day, baclofen 30 and 60 mg daily, magnesium 300 mg three times a day
# Description: The patient's Parkinson's disease was treated using levodopa/carbidopa and bromocriptine.
# Prior to beginning treatment with acamprosate, the patient was on an antiparkinson treatment regime that consisted of 1 mg of pergolide three times a day, 5 mg of selegiline twice a day, and a combination of levodopa/carbidopa consisting of 550-600 mg of levodopa and 125-150 mg of carbidopa administered in divided doses.
# The patient began acamprosate as an addition to the antiparkinson regime described above. Initially, the patient received 666 mg of acamprosate administered three times a day. Two weeks later the regime was adjusted such that the patient received 333 mg of acamprosate four times a day, taking one 333 mg pill with each daytime dose of 100 mg levodopa and 25 mg carbidopa. The patient's bedtime does of controlled-release levodopa-carbidopa (200 mg of levodopa and 50 mg of carbidopa) was continued, but were given without acamprosate. […] To confirm that the patient's improvement was due to the administration of acamprosate, the patient was taken off the acamprosate. […] During the period off acamprosate, an attempt was made to replace acamprosate with baclofen (a GABA-receptor agonist) at a total daily dose of 30 mg, and then with baclofen at a total daily dose of 60 mg.
# Several months later, magnesium (300 mg elemental magnesium, as a mixed chelate), was added to the regimen. It was taken three times a day, together with a one of the patient's regular doses of levodopa/carbidopa. […] To establish whether the improvement was due to magnesium, the magnesium was stopped after several weeks.
# [4] = system: patients with tic-related symptoms; details: in vivo; cited from earlier work
# [5] = system: person one with long-standing TD; test: Case Report 2: clinical observation of TD; assay type: in vivo, human; details: Case 2; acamprosate 666 mg three times daily added to memantine; magnesium oxide 250 mg three times a day added to acamprosate
# Excerpt: person one had long-standing TD following decades of treatment with the neuroleptic drug perphenazine. Their involuntary movements comprised bilateral chorea of the upper extremities, plus writhing of the tongue and tongue-biting. Both of the latter movements led to a very sore tongue. In addition, the patient experienced impairment of their short-term memory, which was attributed primarily to cerebrovascular disease.
# They also continued to have a sore tongue. […] In addition to memantine, the patient regularly took antiepileptic drugs (gabapentin and lamotrigine), antiplatelet agents (aspirin and ticlopidine), as well as medications for hypertension, glaucoma and gastrointestinal symptoms (isosorbide mononitrate, metoprolol, timolol eye drops and olsalazine).
# The patient was placed on a treatment regime that included administration of 666 mg of acamprosate, three times daily. In this case, acamprosate was added to the patient's regimen, which continued to include memantine. […] Despite past evidence from formal testing that the patient had impaired short-term memory, they performed normally on a two-sentence memory task, which involved testing the patient's recall ability using two sentences containing 13 separate details. On the two-sentence memory task, within three attempts the patient was able to recall 9 details and, using a multiple choice format, was able to recall a total of 11 details. Recall of 9 details on the third attempt would be normal for a middle-aged adult, let alone one […].
# After a full year on memantine and acamprosate, the memantine was discontinued, with little change in the patient's symptoms.
# Magnesium oxide, 250 mg three times a day, was added, each dose being taken together with the acamprosate. […] The effect was definite: movements worsened when magnesium oxide was stopped and improved when it was restarted. After a month on magnesium, the dosage of acamprosate was increased to 666 mg four times a day, with 250 mg of magnesium oxide given together with each dose. […] The only residual sign of TD was a mild degree of involuntary movement of the hands.
Compound,effect on involuntary movements of TD ([1]; memantine 10 mg twice a day),effect on peak-dose dyskinesia [3],also measured
"OC(CCN1CCCCC1)(c1ccccc1)C1CCCCC1 (stereo not shown) [Trihexyphenidyl, trihexyphenidyl]",discontinued without a change in their involuntary movements,,
COc1cc2c(cc1OC)C1CC(=O)C(CC(C)C)CN1CC2 (stereo not shown) [Tetrabenazine],,,"patients with involuntary movements alleviated [2]: 4 of 6; undesirable side effects [2]: drowsiness, drooling and Parkinsonism"
NCC(CC(=O)O)c1ccc(Cl)cc1 (stereo not shown) [baclofen],,no beneficial effect,"adverse effects ([3]; total daily dose 30 mg, then 60 mg): sedation and nausea"
Cc1nnc2n1-c1ccc(Cl)cc1C(c1ccccc1)=NC2 [alprazolam],no detectable effect,,
CN[C@H]1CC[C@@H](c2ccc(Cl)c(Cl)c2)c2ccccc21 [sertraline],either produced little benefit or were not tolerated,did not appear to affect,
Clc1cccc(Cl)c1N=C1NCCN1 [clonidine],,,patients showing clinically significant improvement of tic-related symptoms [4]: < 50%; side effects that limit use [4]: hypotension or sedation
CC(C[N+](C)(C)C)OC(N)=O (stereo not shown) [bethanecol],,did not appear to affect,
[O]=[Mg] [Magnesium oxide],,,effect on involuntary movements of TD [5]: improved further
COCCOC(=O)C1=C(C)NC(C)=C(C(=O)OC(C)C)C1c1cccc([N+](=O)[O-])c1 (stereo not shown) [nimodipine],,,"reduction of involuntary movements ([1]; 30 mg four times a day): about 50%; time able to read text or music at a time ([1]; 30 mg four times a day): no more than 30 minutes; adverse effects ([1]; nimodipine 30 mg four times a day, memantine 10 mg twice a day): dizziness, lightheadedness, and palpitations"
O=C1CC2(CCCC2)CC(=O)N1CCCCN1CCN(c2ncccn2)CC1 [buspirone],either produced little benefit or were not tolerated,,
medroxyprogesterone,,did not appear to affect,
vitamin E,either produced little benefit or were not tolerated,,
NC(=O)N1c2ccccc2C=Cc2ccccc21 [carbamazepine],,did not appear to affect,

# — US7745493B2, “Methods of treating tardive dyskinesia and other movement disorders” (priority 1998, dated 2010)
